US11560371B2, “Cereblon binding compounds, compositions thereof, and methods of treatment therewith” (Celgene Corporation, priority 2020, dated 2023)
Where a name gives a salt, the structure may show the parent alone.

Biological target: T1, AR (Homo sapiens, UniProt P10275)
T1 construct: endogenous in cells; host or cells: VCaP cells
T1 sequence (P10275 1-920): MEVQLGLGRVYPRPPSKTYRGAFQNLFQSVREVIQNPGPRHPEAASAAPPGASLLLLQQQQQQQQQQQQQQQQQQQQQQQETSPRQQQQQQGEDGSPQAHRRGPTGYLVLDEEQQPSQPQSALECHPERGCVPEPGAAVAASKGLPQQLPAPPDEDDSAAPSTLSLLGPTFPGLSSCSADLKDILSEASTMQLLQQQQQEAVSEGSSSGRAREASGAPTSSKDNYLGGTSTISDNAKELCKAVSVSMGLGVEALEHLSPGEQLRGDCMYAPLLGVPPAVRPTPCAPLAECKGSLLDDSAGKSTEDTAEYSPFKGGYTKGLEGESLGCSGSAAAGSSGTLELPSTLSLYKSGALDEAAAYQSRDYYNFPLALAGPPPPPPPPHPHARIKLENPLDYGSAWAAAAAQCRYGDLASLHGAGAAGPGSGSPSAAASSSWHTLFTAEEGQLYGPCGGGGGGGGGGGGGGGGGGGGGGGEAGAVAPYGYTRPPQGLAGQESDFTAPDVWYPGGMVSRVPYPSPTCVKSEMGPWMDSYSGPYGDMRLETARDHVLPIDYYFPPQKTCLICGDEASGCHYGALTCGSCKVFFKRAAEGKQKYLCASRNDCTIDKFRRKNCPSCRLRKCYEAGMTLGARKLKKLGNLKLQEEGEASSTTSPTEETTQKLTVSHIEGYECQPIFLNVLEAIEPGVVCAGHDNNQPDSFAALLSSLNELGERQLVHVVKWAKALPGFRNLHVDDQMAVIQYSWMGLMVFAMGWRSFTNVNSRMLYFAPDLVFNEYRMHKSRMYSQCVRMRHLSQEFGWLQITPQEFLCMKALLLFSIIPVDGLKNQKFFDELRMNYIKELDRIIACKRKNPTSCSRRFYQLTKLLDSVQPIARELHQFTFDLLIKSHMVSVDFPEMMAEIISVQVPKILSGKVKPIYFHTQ
Assay: VCAP AR Degradation Assay
Format: cell-based
Conditions: VCaP cells, 24 h, AR ELISA; for DC50: concentration of compound when AR level = 50% of DMSO control (50% AR degradation); for Y: lowest measured AR level normalized to DMSO control (AR degradation efficiency)
Experimental: VCAP AR Degradation Assay. Test compounds were pre-dispensed into a Corning CellBind 96-well clear bottom plate (Cat #3300) using an acoustic dispenser to make a 10-point concentration series at 1:3 dilution for each compound. The final top concentration of each compound was 5 μM. DMSO at a final concentration of 0.1% was used as a control. VCaP cells cultured in DMEM with 8% fetal bovine serum (FBS) were seeded at 50K cells per well in a 200 μL volume into the compound plate and incubated at 37° C. in a CO2 incubator for 24 h. The medium was carefully removed from the cells and the plate was placed on ice. […] ice-cold 1× cell lysis buffer from Cell Signaling Technologies (Cat #9803) was added to each well of the cells and the plate was incubated at 4° C. on a shaker for 1 h. Fifteen μL of cell lysate was used for AR ELISA detection using a PathScan Total Sandwich AR ELISA kit (Cell Signaling Technology, Cat #12580). AR levels in compound-treated wells were normalized to that of DMSO control and expressed as percent of control (PoC) (y). A Four Parameter Logistic Model (Sigmoidal Dose-Response Model) was used to determine the compound's DC50, and EC50, using the following equation: y=(A+((B−A)/(1+((C/x)^D)))) • A=YMin (lowest AR level normalized to DMSO control in response to compound treatment, as determined by curve fit) • B=YMax (maximum AR level as determined by curve fit) • C=EC50 • D=Hill Slope • x=compound concentration • EC50=the concentration of compound when y=[…] • DC50=the concentration of the compound when y=50% of DMSO control (50% AR degradation) • y=AR protein level normalized to DMSO control
The lowest measured AR level normalized to DMSO control in response to compound treatment, termed Y value, was used to characterize the compound-mediated AR degradation efficiency.

| SMILES | DC50 | Y |
| --- | --- | --- |
| C[C@@H]1CN(CCC[C@H]2CC[C@H](N3C(=S)N(c4cnc(C#N)c(C(F)(F)F)c4)C(=O)C3(C)C)CC2)C[C@H](C)N1CC(=O)Nc1cccc2c(N3CCC(=O)NC3=O)nn(C)c12 [Cmpd 10, 2-((2R,6S)-4-(3-(trans-4-(3-(6-Cyano-5-(trifluoromethyl)pyridin-3-yl)-5,5-dimethyl-4-oxo-2-thioxoimidazolidin-1-yl)cyclohexyl)propyl)-2,6-dimethylpiperazin-1-yl)-N-(3-(2,4-dioxotetrahydropyrimidin-1(2H)-yl)-1-methyl-1H-indazol-7-yl)acetamide hydrochloride] | 2 to 10 nM | * (0<Y≤20%) |
| C[C@@H]1CN(CCC[C@H]2CC[C@H](N3C(=S)N(c4ccc(C#N)c(C(F)(F)F)c4)C(=O)C3(C)C)CC2)C[C@H](C)N1CC(=O)Nc1cccc2c(N3CCC(=O)NC3=O)nn(C)c12 [Cmpd 2, 2-((2R,6S)-4-(3-(trans-4-(3-(4-Cyano-3-(trifluoromethyl)phenyl)-5,5-dimethyl-4-oxo-2-thioxoimidazolidin-1-yl)cyclohexyl)propyl)-2,6-dimethylpiperazin-1-yl)-N-(3-(2,4-dioxotetrahydropyrimidin-1(2H)-yl)-1-methyl-1H-indazol-7-yl)acetamide hydrochloride] | 2 to 10 nM | ** (20%<Y≤%) |
| C[C@@H]1CN(CCCC[C@H]2CC[C@H](N3C(=S)N(c4ccc(C#N)c(C(F)(F)F)c4)C(=O)C3(C)C)CC2)C[C@H](C)N1CC(=O)Nc1cccc2c(N3CCC(=O)NC3=O)nn(C)c12 [Cmpd 17, 2-((2R,6S)-4-(4-(trans-4-(3-(4-Cyano-3-(trifluoromethyl)phenyl)-5,5-dimethyl-4-oxo-2-thioxoimidazolidin-1-yl)cyclohexyl)butyl)-2,6-dimethylpiperazin-1-yl)-N-(3-(2,4-dioxotetrahydropyrimidin-1(2H)-yl)-1-methyl-1H-indazol-7-yl)acetamide hydrochloride] | 2 to 10 nM | ** (20%<Y≤%) |
| C[C@@H]1C[C@H](OCCC[C@H]2CC[C@H](N3C(=S)N(c4ccc(C#N)c(C(F)(F)F)c4)C(=O)C3(C)C)CC2)C[C@H](C)N1CC(=O)Nc1cccc2c(N3CCC(=O)NC3=O)nn(C)c12 [Cmpd 29, 2-((2R,4r,6S)-4-(3-((trans)-4-(3-(4-Cyano-3-(trifluoromethyl)phenyl)-5,5-dimethyl-4-oxo-2-thioxoimidazolidin-1-yl)cyclohexyl)propoxy)-2,6-dimethylpiperidin-1-yl)-N-(3-(2,4-dioxotetrahydropyrimidin-1(2H)-yl)-1-methyl-1H-indazol-7-yl)acetamide] | 10 to 100 nM | * (0<Y≤20%) |
| Cn1nc(N2CCC(=O)NC2=O)c2cccc(NC(=O)CN3CCN(CCC[C@H]4CC[C@H](N5C(=S)N(c6ccc(C#N)c(C(F)(F)F)c6)C(=O)C5(C)C)CC4)C[C@@H]3C(F)(F)F)c21 [Cmpd 23, 2-((R)-4-(3-(trans-4-(3-(4-cyano-3-(trifluoromethyl)phenyl)-5,5-dimethyl-4-oxo-2-thioxoimidazolidin-1-yl)cyclohexyl)propyl)-2-(trifluoromethyl)piperazin-1-yl)-N-(3-(2,4-dioxotetrahydropyrimidin-1(2H)-yl)-1-methyl-1H-indazol-7-yl)acetamide] | 2 to 10 nM | ** (20%<Y≤%) |
| C[C@@H]1CN(CCO[C@H]2CC[C@H](N3C(=S)N(c4cnc(C#N)c(C(F)(F)F)c4)C(=O)C3(C)C)CC2)C[C@H](C)N1CC(=O)Nc1cccc2c(N3CCC(=O)NC3=O)nn(C)c12 [Cmpd 4, 2-((2R,6S)-4-(2-((trans-4-(3-(6-Cyano-5-(trifluoromethyl)pyridin-3-yl)-5,5-dimethyl-4-oxo-2-thioxoimidazolidin-1-yl)cyclohexyl)oxy)ethyl)-2,6-dimethylpiperazin-1-yl)-N-(3-(2,4-dioxotetrahydropyrimidin-1(2H)-yl)-1-methyl-1H-indazol-7-yl)acetamide hydrochloride] | 2 to 10 nM | ** (20%<Y≤%) |
| C[C@@H]1CN(CCCO[C@H]2CC[C@H](N3C(=S)N(c4cnc(C#N)c(C(F)(F)F)c4)C(=O)C3(C)C)CC2)C[C@H](C)N1CC(=O)Nc1cccc2c(N3CCC(=O)NC3=O)nn(C)c12 [Cmpd 7, 2-((2R,6S)-4-(3-((trans-4-(3-(6-Cyano-5-(trifluoromethyl)pyridin-3-yl)-5,5-dimethyl-4-oxo-2-thioxoimidazolidin-1-yl)cyclohexyl)oxy)propyl)-2,6-dimethylpiperazin-1-yl)-N-(3-(2,4-dioxotetrahydropyrimidin-1(2H)-yl)-1-methyl-1H-indazol-7-yl)acetamide hydrochloride] | ≤ 2 nM | ** (20%<Y≤%) |
| Cn1nc(N2CCC(=O)NC2=O)c2cccc(NC(=O)CN3CCN(CCC[C@H]4CC[C@H](N5C(=S)N(c6cnc(C#N)c(C(F)(F)F)c6)C(=O)C5(C)C)CC4)C[C@@H]3C(F)(F)F)c21 [Cmpd 22, 2-((R)-4-(3-(trans)-4-(3-(6-cyano-5-(trifluoromethyl)pyridin-3-yl)-5,5-dimethyl-4-oxo-2-thioxoimidazolidin-1-yl)cyclohexyl)propyl)-2-(trifluoromethyl)piperazin-1-yl)-N-(3-(2,4-dioxotetrahydropyrimidin-1(2H)-yl)-1-methyl-1H-indazol-7-yl)acetamide hydrochloride] | 2 to 10 nM | * (0<Y≤20%) |
| C[C@@H]1C[C@H](OCC[C@H]2CC[C@H](N3C(=S)N(c4cnc(C#N)c(C(F)(F)F)c4)C(=O)C3(C)C)CC2)C[C@H](C)N1CC(=O)Nc1cccc2c(N3CCC(=O)NC3=O)nn(C)c12 [Cmpd 32, 2-((2R,4r,6S)-4-(2-((trans)-4-(3-(6-Cyano-5-(trifluoromethyl)pyridin-3-yl)-5,5-dimethyl-4-oxo-2-thioxoimidazolidin-1-yl)cyclohexyl)ethoxy)-2,6-dimethylpiperidin-1-yl)-N-(3-(2,4-dioxotetrahydropyrimidin-1(2H)-yl)-1-methyl-1H-indazol-7-yl)acetamide] | 2 to 10 nM | * (0<Y≤20%) |
| C[C@@H]1CN(CCO[C@H]2CC[C@H](N3C(=S)N(c4ccc(C#N)c(C(F)(F)F)c4)C(=O)C3(C)C)CC2)C[C@H](C)N1CCOc1cccc2c(N3CCC(=O)NC3=O)nn(C)c12 [Cmpd 15, 4-(3-(trans-4-(2-((3R,5S)-4-(2-((3-(2,4-Dioxotetrahydropyrimidin-1(2H)-yl)-1-methyl-1H-indazol-7-yl)oxy)ethyl)-3,5-dimethylpiperazin-1-yl)ethoxy)cyclohexyl)-4,4-dimethyl-5-oxo-2-thioxoimidazolidin-1-yl)-2-(trifluoromethyl)benzonitrile hydrochloride] | 100 to 10000 nM | ** (20%<Y≤%) |
| C[C@@H]1C[C@H](OCCO[C@H]2CC[C@H](N3C(=S)N(c4ccc(C#N)c(C(F)(F)F)c4)C(=O)C3(C)C)CC2)C[C@H](C)N1CC(=O)Nc1cccc2c(N3CCC(=O)NC3=O)nn(C)c12 [Cmpd 33, 2-((2R,4r,6S)-4-(2-(((trans)-4-(3-(4-Cyano-3-(trifluoromethyl)phenyl)-5,5-dimethyl-4-oxo-2-thioxoimidazolidin-1-yl)cyclohexyl)oxy)ethoxy)-2,6-dimethylpiperidin-1-yl)-N-(3-(2,4-dioxotetrahydropyrimidin-1(2H)-yl)-1-methyl-1H-indazol-7-yl)acetamide] | 2 to 10 nM | ** (20%<Y≤%) |
